Columns and labels:
Assay in all cases: combination Emax (second highest fraction inhibited in the dose matrix, 72 h); higher = more inhibition; extreme values may be limits of the assay
[1] = tested on: OS-RC-2 (Kidney Carcinoma)
How it was run: (§1)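 Bliss excess equals the observed combination effect minus the expected value EA + EB − EA·EB, where EA and EB are the effects of each agent alone. Combination Emax is the second-highest inhibition within the matrix. Inhibition was scaled from CellTiter-Glo 2.0 luminescence, with 0 set by vehicle wells and 1 by blank wells, after 72 hours of two-drug dosing of cells plated in 1536-well plates.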

U-2-OS (Osteosarcoma) = tested on: U-2-OS (Osteosarcoma)
How it was run: as §1

[2] = tested on: NCI-H1650 (Lung Adenocarcinoma)
How it was run: as §1

[3] = tested on: ONS-76 (Other Solid Carcinomas)
How it was run: as §1

[4] = tested on: VCaP (Prostate Carcinoma)
How it was run: as §1

NY (Osteosarcoma) = tested on: NY (Osteosarcoma)
How it was run: as §1

LN-405 (Glioblastoma) = tested on: LN-405 (Glioblastoma)
How it was run: as §1

[5] = tested on: SK-MG-1 (Low Grade Glioma)
How it was run: as §1

PA-1 (Ovarian Carcinoma) = tested on: PA-1 (Ovarian Carcinoma)
How it was run: as §1

[6] = tested on: NCI-H1581 (Non-Small Cell Lung Carcinoma)
How it was run: as §1

GI-ME-N (Neuroblastoma) = tested on: GI-ME-N (Neuroblastoma)
How it was run: as §1

CAS-1 (Glioblastoma) = tested on: CAS-1 (Glioblastoma)
How it was run: as §1

[7] = tested on: TT (Thyroid Gland Carcinoma)
How it was run: as §1

[8] = tested on: CCK-81 (Colorectal Carcinoma)
How it was run: as §1

[9] = tested on: CAPAN-2 (Pancreatic Carcinoma)
How it was run: as §1

[10] = tested on: COLO-824 (Breast Carcinoma)
How it was run: as §1

[11] = tested on: CAL-29 (Bladder Carcinoma)
How it was run: as §1

[12] = tested on: JSC-1 (B-Cell Non-Hodgkin's Lymphoma)
How it was run: as §1

[13] = tested on: SISO (Cervical Carcinoma)
How it was run: as §1

[14] = tested on: A549 (Lung Adenocarcinoma)
How it was run: as §1

Compound	combination Emax [1]	combination Emax (U-2-OS (Osteosarcoma))	combination Emax [2]	combination Emax [3]	combination Emax [4]	combination Emax (NY (Osteosarcoma))	combination Emax (LN-405 (Glioblastoma))	combination Emax [5]	combination Emax (PA-1 (Ovarian Carcinoma))	combination Emax [6]	combination Emax (GI-ME-N (Neuroblastoma))	combination Emax (CAS-1 (Glioblastoma))	combination Emax [7]	combination Emax [8]	combination Emax [9]	combination Emax [10]	combination Emax [11]	combination Emax [12]	combination Emax [13]	combination Emax [14]
CC1(C)CCC(CN2CCN(c3ccc(C(=O)NS(=O)(=O)c4ccc(NCC5CCOCC5)c([N+](=O)[O-])c4)c(Oc4cnc5[nH]ccc5c4)c3)CC2)=C(c2ccc(Cl)cc2)C1 [Venetoclax] + Cn1cnc2c(F)c(Nc3ccc(Br)cc3Cl)c(C(=O)NOCCO)cc21 [Selumetinib] (first compound max 1 µM, 7x7, partner max 3 µM)	0.169	0.169	0.0531	0.536	0.143	0.485	0.182	0.185	0.318	0.32	0.24	0.158	0.436	0.369	0.364	0.829	0.245	0.271	0.196	0.611
Cc1cc2ncnn2cc1Nc1ncc2c(n1)n(C1CCOCC1)c(=O)n2C [AZD7648] + CN(C)CCCOc1ccc(-c2ccc3ncc4c(c3c2)n(C2CCOCC2)c(=O)n4C)cn1 [AZD0156] (first compound max 10 µM, 7x7, partner max 1 µM)	0.261	0.176	0.25	0.26	0.265	0.286	0.164	0.359	0.239	0.369	0.157	0.314	0.41	0.299	0.253	0.283	0.218	0.303	0.16	0.468
NC1(C(=O)N[C@@H](CCO)c2ccc(Cl)cc2)CCN(c2ncnc3[nH]ccc23)CC1 [Capivasertib] + CCN(CCO)CCCOc1ccc2c(Nc3cc(CC(=O)Nc4cccc(F)c4)[nH]n3)ncnc2c1 [AZD2811] (first compound max 10 µM, 7x7, partner max 1 µM)	0.445	0.383	0.351	0.589	0.543	0.257	0.497	0.607	0.918	0.469	0.324	0.635	0.544	0.366	0.219	0.85	0.452	0.69	0.477	0.698
Cn1cnc2c(F)c(Nc3ccc(Br)cc3Cl)c(C(=O)NOCCO)cc21 [Selumetinib] + CC(C)n1c(=O)n(C)c2cnc3cc(F)c(-c4ccc(OCCCN5CCCCC5)nc4)cc3c21 [AZD1390] (first compound max 10 µM, 7x7, partner max 0.3 µM)	0.158	0.577	0.132	0.713	0.0626	0.181	0.129	0.185	0.276	0.455	0.178	0.241	0.201	0.379	0.378	0.302	0.216	0.584	0.0869	0.761
Cc1c2c(nn1C)CSCc1cc(n(C)n1)CSc1cc(c3ccccc3c1)OCCCc1c(C(=O)O)n(C)c3c-2c(Cl)ccc13 [AZD5991] + C1CN(CCC1(C(=O)N[C@@H](CCO)C2=CC=C(C=C2)Cl)N)C3=NC=NC4=C3C=CN4 [Capivasertib] (first compound max 1 µM, 7x7, partner max 3 µM)	0.256	0.219	0.41	0.249	1	0.492	0.404	0.444	0.947	1	0.27	0.573	0.366	0.918	0.227	0.601	0.342	1	0.173	0.379
CC(=O)c1c(C)c2cnc(Nc3ccc(N4CCNCC4)cn3)nc2n(C2CCCC2)c1=O [Palbociclib] + Cc1c2c(nn1C)CSCc1cc(n(C)n1)CSc1cc(c3ccccc3c1)OCCCc1c(C(=O)O)n(C)c3c-2c(Cl)ccc13 [AZD5991] (first compound max 10 µM, 7x7, partner max 1 µM)	0.232	0.274	0.195	0.357	0.855	0.534	0.208	0.3	0.872	0.951	0.332	0.32	0.419	0.941	0.139	0.708	0.175	1	0.127	0.64
